Tested on: Mdr2−/− mice
Assay: In vivo animal model of primary sclerosing cholangitis (Mdr2-/- mice)
Conditions: daily oral gavage for 2-4 weeks, vs vehicle
Source text: A genetic mice with targeted disruption of the Multidrug resistant Mdr2 (Abcb4) gene encoding a canalicular phospholipid flippase (Mdr2−/− mice) spontaneously develop sclerosing cholangitis with macroscopic and microscopic features of human Primary sclerosing cholangitis. Bile duct injury in these mice is linked to defective biliary phospholipid secretion resulting in an increased concentration of free non-micellar bile acids which subsequently cause bile duct epithelial cell (cholangiocyte) injury, pericholangitis, periductal fibrosis with ductular proliferation and finally sclerosing cholangitis. […] In analogy to the Mdr2−/− mouse model of sclerosing cholangitis, Multidrug resistant protein MDR3/ABCB4 (the human orthologue of rodent Mdr2/Abcb4) defects play a role in the pathogenesis of various cholangiopathies in humans. MDR3 variants play a role as a modifier gene in the pathogenesis of various cholangiopathies such as PSC, Primary Biliary cirrhosis (PBC) and adulthood idiopathic ductopenia/billary fibrosis.
Mdr2−/− mice were given daily oral doses of the compound of Example 14 by gavage for 2-4 weeks and controls were dosed the vehicle in the same way. Serum liver tests, liver histology and fibrosis were investigated. The compound of Example 14 improves liver tests, liver histology and fibrosis.

With CCCCC1(CCCC)CN(c2ccccc2)c2cc(SC)c(OCC(=O)N[C@@H](C(=O)NCC(=O)O)c3ccccc3)cc2S(=O)(=O)C1 [Example 14, 1,1-Dioxo-3,3-dibutyl-5-phenyl-7-methylthio-8-(N—{(R)-1′-phenyl-1′-[N′-(carboxymethyl)carbamoyl]methyl}carbamoylmethoxy)-2,3,4,5-tetrahydro-1,5-benzothiazepine] the Serum liver tests was “improves”.

Source: patent publication US9694018B1, “IBAT inhibitors for the treatment of liver disease” (Albireo AB, priority 2010, dated 2017)
